In PMC7614367, “Itraconazole inhibits endothelial cell migration by disrupting inositol pyrophosphate-dependent focal adhesion dynamics and cytoskeletal remodeling” (Biomedicine & Pharmacotherapy, 2023):

What was measured:
coronin (GST-coronin) = molecular target: T1, coronin (GST-coronin) (Homo sapiens, UniProt Q9BR76); assay: affinity resin pull-down of purified protein, western blot; type: binding; conditions: immobilised 5-PCP-InsP5 resin; 4 °C overnight; also endogenous protein from HUVEC lysate
T1 construct: gene CORO1B; GST-fused coronin produced in HEK293 cells, eluted with glutathione; tag kept; endogenous HUVEC protein also pulled down

p34 (flag-p34) = molecular target: T2, p34 (flag-p34) (Homo sapiens, UniProt O15144); assay: as above; type: binding; conditions: immobilised 5-PCP-InsP5 resin; 4 °C overnight; also endogenous protein from HUVEC lysate
T2 construct: gene ARPC2; tag kept; endogenous HUVEC protein also pulled down

endogenous FAK (MEF) = molecular target: T3, endogenous FAK (MEF) (Mus musculus, UniProt P34152); assay: affinity resin pull-down from cell lysate, western blot; type: biochemical; conditions: immobilised 5-PCP-InsP5 resin
T3 construct: gene Ptk2; endogenous full-length FAK in lysates of WT and IP6K1 KO mouse embryonic fibroblasts

FAK (GST-FAK, flag-FAK) [1] = molecular target: T4, FAK (GST-FAK, flag-FAK) (Homo sapiens, UniProt Q05397); assay: affinity resin pull-down of purified protein, western blot; type: binding; conditions: immobilised 5-PCP-InsP5 resin; 4 °C overnight; also endogenous protein from HUVEC lysate; free 5-PCP (10 μM) with 5-InsP7 (5 μM) in a FAK dimerization competition assay
T4 construct: gene PTK2; full-length FAK, GST- or flag-tagged, produced in HEK293 cells; tags kept; endogenous HUVEC protein also pulled down

FAK (GST-FAK, flag-FAK) [2] = molecular target: T4, FAK (GST-FAK, flag-FAK); assay: bead pull-down of GST-FAK by flag-FAK, western blot; type: binding; conditions: CF2 (10 μM) competing with 5-InsP7 (5 μM)

T4 sequence (Q05397 2-1052): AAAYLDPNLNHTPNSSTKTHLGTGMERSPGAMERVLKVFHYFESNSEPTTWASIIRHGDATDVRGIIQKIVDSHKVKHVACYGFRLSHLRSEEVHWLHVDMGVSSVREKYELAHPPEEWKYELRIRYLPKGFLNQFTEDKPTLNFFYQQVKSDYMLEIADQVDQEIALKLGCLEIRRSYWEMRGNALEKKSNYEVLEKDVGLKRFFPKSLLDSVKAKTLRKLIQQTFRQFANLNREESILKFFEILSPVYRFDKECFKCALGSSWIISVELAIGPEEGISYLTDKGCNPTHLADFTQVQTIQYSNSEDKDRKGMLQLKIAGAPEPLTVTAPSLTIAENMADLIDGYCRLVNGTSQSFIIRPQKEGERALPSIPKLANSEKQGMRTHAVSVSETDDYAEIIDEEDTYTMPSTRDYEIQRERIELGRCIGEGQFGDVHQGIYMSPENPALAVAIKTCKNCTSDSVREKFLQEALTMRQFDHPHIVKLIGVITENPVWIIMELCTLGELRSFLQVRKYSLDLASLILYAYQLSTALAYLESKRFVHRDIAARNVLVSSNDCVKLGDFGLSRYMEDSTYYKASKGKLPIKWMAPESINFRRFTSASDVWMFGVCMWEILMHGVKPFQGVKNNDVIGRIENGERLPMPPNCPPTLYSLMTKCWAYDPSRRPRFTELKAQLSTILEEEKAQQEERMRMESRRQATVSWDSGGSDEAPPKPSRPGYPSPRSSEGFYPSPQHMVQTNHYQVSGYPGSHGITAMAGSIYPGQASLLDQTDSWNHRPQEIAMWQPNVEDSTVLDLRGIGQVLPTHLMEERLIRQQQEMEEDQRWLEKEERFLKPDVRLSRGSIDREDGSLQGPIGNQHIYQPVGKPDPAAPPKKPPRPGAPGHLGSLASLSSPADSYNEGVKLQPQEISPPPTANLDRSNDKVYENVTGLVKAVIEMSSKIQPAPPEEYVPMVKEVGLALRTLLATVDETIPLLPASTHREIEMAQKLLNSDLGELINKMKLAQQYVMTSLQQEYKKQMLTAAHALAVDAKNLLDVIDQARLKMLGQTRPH
T1 sequence (Q9BR76 whole entry, the tested form may be a part): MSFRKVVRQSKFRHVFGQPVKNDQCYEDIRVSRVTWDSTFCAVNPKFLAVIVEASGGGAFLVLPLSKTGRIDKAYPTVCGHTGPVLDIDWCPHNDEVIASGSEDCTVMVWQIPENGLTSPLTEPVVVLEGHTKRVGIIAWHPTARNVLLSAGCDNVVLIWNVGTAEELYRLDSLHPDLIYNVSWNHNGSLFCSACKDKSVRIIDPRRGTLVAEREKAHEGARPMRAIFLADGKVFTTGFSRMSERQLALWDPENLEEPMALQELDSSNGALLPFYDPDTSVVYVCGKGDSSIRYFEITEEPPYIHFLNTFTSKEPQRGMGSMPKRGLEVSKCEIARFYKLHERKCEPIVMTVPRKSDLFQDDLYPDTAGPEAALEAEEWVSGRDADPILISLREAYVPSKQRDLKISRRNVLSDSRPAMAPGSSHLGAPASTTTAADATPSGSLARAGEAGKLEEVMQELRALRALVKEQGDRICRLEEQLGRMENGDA
T3 sequence (P34152 2-1052): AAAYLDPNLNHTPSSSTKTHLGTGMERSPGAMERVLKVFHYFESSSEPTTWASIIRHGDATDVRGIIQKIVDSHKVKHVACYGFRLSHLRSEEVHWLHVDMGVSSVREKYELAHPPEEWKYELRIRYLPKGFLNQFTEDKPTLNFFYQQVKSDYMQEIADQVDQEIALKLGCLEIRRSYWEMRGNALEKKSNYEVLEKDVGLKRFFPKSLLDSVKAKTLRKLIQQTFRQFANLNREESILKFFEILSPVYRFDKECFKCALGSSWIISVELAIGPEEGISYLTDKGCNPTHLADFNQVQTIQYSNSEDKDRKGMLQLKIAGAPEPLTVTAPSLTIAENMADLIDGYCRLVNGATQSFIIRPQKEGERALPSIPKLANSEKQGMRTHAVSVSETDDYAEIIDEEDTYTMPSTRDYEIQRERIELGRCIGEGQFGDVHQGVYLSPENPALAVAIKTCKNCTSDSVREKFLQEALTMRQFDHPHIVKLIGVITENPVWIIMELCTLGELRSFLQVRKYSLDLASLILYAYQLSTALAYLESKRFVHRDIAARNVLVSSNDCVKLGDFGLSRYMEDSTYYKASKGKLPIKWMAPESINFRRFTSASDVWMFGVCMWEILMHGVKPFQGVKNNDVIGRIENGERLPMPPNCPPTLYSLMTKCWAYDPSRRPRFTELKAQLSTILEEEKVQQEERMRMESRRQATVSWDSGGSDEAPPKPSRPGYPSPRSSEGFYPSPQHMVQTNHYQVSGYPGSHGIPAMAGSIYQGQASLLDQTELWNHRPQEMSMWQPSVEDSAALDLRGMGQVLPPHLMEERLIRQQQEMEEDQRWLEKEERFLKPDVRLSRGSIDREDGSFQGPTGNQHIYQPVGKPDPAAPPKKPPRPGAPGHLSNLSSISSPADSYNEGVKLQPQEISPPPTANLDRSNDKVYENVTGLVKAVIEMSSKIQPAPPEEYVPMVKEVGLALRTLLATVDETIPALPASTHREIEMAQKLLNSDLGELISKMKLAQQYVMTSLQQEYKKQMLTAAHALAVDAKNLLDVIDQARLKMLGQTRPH

| Structure (SMILES) | affinity resin pull-down of purified protein, western blot (coronin (GST-coronin)) | affinity resin pull-down of purified protein, western blot (p34 (flag-p34)) | affinity resin pull-down from cell lysate, western blot (endogenous FAK (MEF)) | affinity resin pull-down of purified protein, western blot (FAK (GST-FAK, flag-FAK) [1]) | block of 5-InsP7-mediated FAK dimerization (FAK (GST-FAK, flag-FAK) [2]) |
| --- | --- | --- | --- | --- | --- |
| O=P(O)(O)CP(=O)(O)O[C@H]1[C@H](OP(=O)(O)O)[C@@H](OP(=O)(O)O)[C@@H](OP(=O)(O)O)[C@@H](OP(=O)(O)O)[C@@H]1OP(=O)(O)O [5-PCP-InsP5] | pulls down purified p34 and coronin in an in vitro protein binding assay | pulls down purified p34 and coronin in an in vitro protein binding assay | 5-PCP resin pulls down endogenous FAK in WT and IP6K1 KO MEF cells | 5-PCP resin pulls down purified full length (FL) FAK and FAK FERM domain |  |
| O=C(N[C@@H]1[C@@H](OP(=O)(O)O)[C@H](OP(=O)(O)O)[C@H](OP(=O)(O)O)[C@H](OP(=O)(O)O)[C@H]1OP(=O)(O)O)C(F)(F)P(=O)(O)O [5-PCF2Am-InsP5] |  |  |  |  | 5-PCP and CF2 compete with 5-InsP7 to block 5-InsP7-mediated FAK dimer formation |
